Experimental data reported in US20100093864A1, “ANTI-INFECTIVE THIOUREA COMPOUNDS” (LICA PHARMACEUTICALS, priority 2006, published 2010).
In brackets after ≈: the same amount, converted by molar mass. Like-named read-outs stand apart in the source and are kept apart here. Values belong to the molecule of their own block, whether it stands above or below them.

What was measured:
[1] = tested on: erythrocyte; assay: Erythrocyte hemolysis assay; assay type: cell-based; conditions: for 50% Haemolysis: concentration giving 50% haemolysis
[2] = tested on: Staphylococcus aureus; assay: Antibacterial screening (MIC), broth microdilution assay; assay type: cell-based; conditions: read-out: MIC Staph. aureus
Protocol: An initial screening for in vitro activity was conducted in a broth microtiter assay. The synthesized compounds were assayed against several […] such as Staphylococcus aureus and 2 different strains of E. coli (including a type strain and an antibiotic-susceptible strain). Following initial screening MICs were determined.
Staphylococcus aureus ATCC29213 Staphylococcus aureus ATCC33591 (MRSA) Eschericia coli ATCC25922 Eschericia coli ESS
The screening was performed with test compounds in 4 different concentrations.
MICs for ATCC type strains fall within the limits posted by the NCCLS (M100-S11) when tested against Vancomycin, Tetracycline and Gentamycin.

[3] = tested on: MCF7 cells (ATCC: HTB 22); assay: MTT assay on MCF7 cells; assay type: cell-based
Excerpt: The cytotoxicity effect of the compounds at different exposure times as a function of concentration has been tested in an erythrocyte hemolysis assay as well as an MTT assay on MCF7 cells (ATCC: HTB 22).

[4] = molecular target: bovine serum albumin (BSA) (Bos taurus, UniProt P02769); assay: Protein binding bioassay: MICs in presence or absence of 40 mg/ml BSA; assay type: in vitro ADME; conditions: MICs with or without 40 mg/ml BSA
Sequence of bovine serum albumin (BSA) (P02769 25-607): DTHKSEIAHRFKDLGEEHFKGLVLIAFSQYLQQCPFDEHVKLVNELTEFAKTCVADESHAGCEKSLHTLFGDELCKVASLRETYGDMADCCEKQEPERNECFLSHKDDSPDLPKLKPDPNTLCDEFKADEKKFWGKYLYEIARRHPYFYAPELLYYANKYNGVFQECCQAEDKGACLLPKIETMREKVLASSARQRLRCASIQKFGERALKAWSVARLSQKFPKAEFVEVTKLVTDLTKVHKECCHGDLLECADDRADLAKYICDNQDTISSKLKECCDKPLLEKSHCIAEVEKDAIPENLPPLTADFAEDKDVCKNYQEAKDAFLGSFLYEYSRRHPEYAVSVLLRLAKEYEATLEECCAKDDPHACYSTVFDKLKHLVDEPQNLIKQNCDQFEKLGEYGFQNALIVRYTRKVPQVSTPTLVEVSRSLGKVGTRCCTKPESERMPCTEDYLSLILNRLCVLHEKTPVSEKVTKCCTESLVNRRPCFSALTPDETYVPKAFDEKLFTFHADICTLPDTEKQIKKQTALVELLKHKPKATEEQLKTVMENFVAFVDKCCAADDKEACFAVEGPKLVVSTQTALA
Protocol: Protein binding was performed using a bioassay determining MICs in the presence or absence of 40 mg/ml bovine serum albumin (BSA).

[5] = Staphylococcus aureus, broth microdilution per NCCLS M7-A5, strain not given

Compound: O=C(O)c1cn(C2CC2)c2cc(N3CCNCC3)c(F)cc2c1=O [Ciprofloxicin, reference compound]
Haemolysis 4x MIC ([1]; at 4x MIC): 0% | 50% Haemolysis [1]: 150 µM | MIC ([2]; broth microdilution per NCCLS M7-A5, strain not given): 1.5 µM (≈ 0.497 µg/mL) | MTT [3]: >100 µM

Compound: CC(NC(=S)Nc1cc(C(F)(F)F)cc(C(F)(F)F)c1)c1ccc(Br)cc1 (stereo not shown) [Compound C, 1-(3,5-Bis-trifluoromethyl-phenyl)-3-[1-(4-bromo-phenyl)-ethyl]-thiourea]
Haemolysis 4x MIC ([1]; at 4x MIC): 15% | 50% Haemolysis [1]: 37.5 µM | MIC [2, 5]: 0.3 µM (≈ 0.141 µg/mL) | fraction unbound [4]: 0.02

Compound: FC(F)(F)c1cc(NC(=S)NCCOc2ccc(Cl)c(Cl)c2)cc(C(F)(F)F)c1 [Compound E, 1-(3,5-Bis-trifluoromethyl-phenyl)-3-[2-(3,4-dichloro-phenoxy)-ethyl]-thiourea]
50% Haemolysis [1]: 18.8 µM | MIC [2, 5]: 0.3 µM (≈ 0.143 µg/mL) | fraction unbound [4]: 0.02

Compound: FC(F)(F)c1cc(NC(=S)NCc2ccc(Cl)cc2)cc(C(F)(F)F)c1 [Compound F, 1-(3,5-Bis-trifluoromethyl-phenyl)-3-(4-chloro-benzyl)-thiourea]
Haemolysis 4x MIC ([1]; at 4x MIC): <1% | 50% Haemolysis [1]: 150 µM | MTT [3]: 150 µM | fraction unbound [4]: < 0.03

Compound: FC(F)(F)c1cc(NC(=S)NCc2ccc(Cl)cc2Cl)cc(C(F)(F)F)c1 [Compound B, 1-(3,5-Bis-trifluoromethyl-phenyl)-3-(2,4-dichloro-benzyl)-thiourea]
Haemolysis 4x MIC ([1]; at 4x MIC): <1% | 50% Haemolysis [1]: 150 µM | MTT [3]: 150 µM | fraction unbound [4]: < 0.02

Compound: FC(F)(F)c1cc(NC(=S)NCCc2cccc(Cl)c2)cc(C(F)(F)F)c1 [Compound G, 1-(3,5-Bis-trifluoromethyl-phenyl)-3-[2-(3-chloro-phenyl)-ethyl]-thiourea]
Haemolysis 4x MIC ([1]; at 4x MIC): 0% | 50% Haemolysis [1]: 75 µM | MIC [2, 5]: 0.6 µM (≈ 0.256 µg/mL) | MTT [3]: 150 µM | fraction unbound [4]: < 0.03

Compound: FC(F)(F)c1cc(NC(=S)NCCc2ccc(Cl)cc2Cl)cc(C(F)(F)F)c1 [Compound D, 1-(3,5-Bis-trifluoromethyl-phenyl)-3-[2-(2,4-dichloro-phenyl)-ethyl]-thiourea]
MIC [2, 5]: 0.3 µM (≈ 0.138 µg/mL) | MTT [3]: 150 µM | fraction unbound [4]: 0.02

Compound: FC(F)(F)c1cc(NC(=S)NCc2cccc(Cl)c2)cc(C(F)(F)F)c1 [Compound A, 1-(3,5-Bis-trifluoromethyl-phenyl)-3-(3-chloro-benzyl)-thiourea]
Haemolysis 4x MIC ([1]; at 4x MIC): <1% | 50% Haemolysis [1]: 75 µM | MIC [2, 5]: 0.6 µM (≈ 0.248 µg/mL) | MTT [3]: 150 µM | fraction unbound [4]: 0.02

MIC [2, 5]: 0.5 µM (≈ 0.235 µg/mL) | MTT [3]: >100 µM
Compound: Cc1onc(-c2c(Cl)cccc2Cl)c1C(=O)N[C@@H]1C(=O)N2[C@@H]1SC(C)(C)[C@@H]2C(=O)O [Dicloxacillin, reference compound]
Haemolysis 4x MIC ([1]; 4 x MIC): 0% | 50% Haemolysis [1]: 150 µM

Compound: CN[C@H](CC(C)C)C(=O)N[C@H]1C(=O)N[C@@H](CC(N)=O)C(=O)N[C@H]2C(=O)N[C@H]3C(=O)N[C@H](C(=O)N[C@H](C(=O)O)c4cc(O)cc(O)c4-c4cc3ccc4O)[C@H](O)c3ccc(c(Cl)c3)Oc3cc2cc(c3O[C@@H]2O[C@H](CO)[C@@H](O)[C@H](O)[C@H]2O[C@H]2C[C@](C)(N)[C@H](O)[C@H](C)O2)Oc2ccc(cc2Cl)[C@H]1O [Vancomycin, reference compound]
Haemolysis 4x MIC ([1]; at 4x MIC): 0% | 50% Haemolysis [1]: 150 µM | MIC ([2]; Staphylococcus aureus): 0.3 µM (≈ 0.435 µg/mL) | MTT [3]: >100 µM
